Laboratory results reported in ChEMBL document CHEMBL5150036, “Photoredox-based late-stage functionalization in SAR study for in vivo potent glucosylceramide synthase inhibitor” (Bioorg Med Chem Lett, 2022).

Tests used:
[1] = Drug concentration in ICR mouse plasma at 10 mg/kg, po measured after 60 mins by LC-MS/MS analysis; format: ADME, organism-based
[2] = 1-Octanol/aqueous buffer partition coefficient, logD of the compound at pH 7.4 by chromatographic method; format: physicochemical
[3] = Unbound drug concentration in ICR mouse brain at 10 mg/kg, po measured after 60 mins by LC-MS/MS analysis; format: ADME, organism-based; details: in vivo, 1 h
[4] = Metabolic stability in mouse liver microsomes assessed as intrinsic clearance at 1 uM in the presence of NADPH regenerating system by LC/MS/MS analysis; format: ADME, Microsome; details: read-out: CLH
[5] = Drug concentration in ICR mouse brain at 10 mg/kg, po measured after 60 mins by LC-MS/MS analysis; format: ADME, organism-based; details: read-out: Ct
[6] = Unbound brain-to-plasma concentration ratio in ICR mouse at 10 mg/kg, po measured after 60 mins by LC-MS/MS analysis; format: ADME, organism-based; details: read-out: K(p,uu,brain)
[7] = Unbound drug concentration in ICR mouse plasma at 10 mg/kg, po measured after 60 mins by LC-MS/MS analysis; format: ADME, organism-based; details: in vivo, 1 h
[8] = Metabolic stability in human liver microsomes assessed as intrinsic clearance at 1 uM in the presence of NADPH regenerating system by LC/MS/MS analysis; format: ADME, Microsome; details: read-out: CLH

SMILES | concentration at 1 h [1] [ng/mL] | chromatographic logD [2] | Drug uptake(free) [3] [nM] | microsomal CLint at 1 µM [4] [µL/min/mg] | concentration at 1 h [5] [ng/g] | Kp uu at 1 h [6] | Cp(f) [7] [nM] | microsomal CLint at 1 µM [8] [µL/min/mg]
Cc1cc2c(c(-c3ccccc3OCC(F)(F)F)n1)CN(c1ccc(C(C)(C)O)cc1)C2=O | 1940 | 2.85 | 43 | 4 | 1140 | 0.11 | 387 | –
CC(C)(O)c1ccc(N2Cc3c(cc(C4(C)COC4)nc3-c3ccccc3OCC(F)(F)F)C2=O)cc1 | 76 | 2.9 | 0.7 | 52 | 17 | 0.04 | 17 | 33
Cc1cc2c(c(-c3ccccc3OCC(F)F)n1)CN(c1ccc(C(C)(C)O)cc1)C2=O | – | 2.69 | – | 1 | – | – | – | –
CC(C)(O)c1ccc(N2Cc3c(ccnc3-c3ccccc3OCC(F)(F)F)C2=O)cc1 | – | 2.37 | – | 12 | – | – | – | 40
CC(C)(O)c1ccc(N2Cc3c(cc(C4CCOCC4)nc3-c3ccccc3OCC(F)F)C2=O)cc1 | – | 2.98 | – | 5 | – | – | – | 1
CC(C)(O)c1ccc(N2Cc3c(cc(C(C)(C)O)nc3-c3ccccc3OCC(F)F)C2=O)cc1 | – | 2.77 | – | – | – | – | – | 3
CC(C)(O)c1ccc(N2Cc3c(cc(C4CCCCC4)nc3-c3ccccc3OCC(F)F)C2=O)cc1 | – | 4.63 | – | 56 | – | – | – | 33
CN(C)C(=O)c1cc2c(c(-c3ccccc3OCC(F)F)n1)CN(c1ccc(C(C)(C)O)cc1)C2=O | – | 1.85 | – | – | – | – | – | –
CC(C)(O)c1ccc(N2Cc3c(cc(C(C)(C)F)nc3-c3ccccc3OCC(F)F)C2=O)cc1 | – | 3.69 | – | 1 | – | – | – | –
CC(C)(O)c1ccc(N2Cc3c(cc(C4(C)COC4)nc3-c3ccccc3OCC(F)F)C2=O)cc1 | 284 | 2.76 | 3.9 | 32 | 65 | 0.03 | 124 | 16
CC(C)(O)c1ccc(N2Cc3c(cc(C(F)F)nc3-c3ccccc3OCC(F)F)C2=O)cc1 | – | 2.86 | – | – | – | – | – | –
CC(C)(O)c1ccc(N2Cc3c(ccnc3-c3ccccc3OCC(F)F)C2=O)cc1 | – | 2.2 | – | 27 | – | – | – | 17
CC(C)(O)c1ccc(N2Cc3c(cc(C4CCCOC4)nc3-c3ccccc3OCC(F)F)C2=O)cc1 (racemic) | – | 3.19 | – | 46 | – | – | – | 61
